Test results from patent US20230085307A1, “PYRIDAZINONE COMPOUND AND HERBICIDE” (NISSAN CHEMICAL CORPORATION, priority 2019, published 2023).

Legend:
windgrass [1] = assay: Test Example 5: herbicidal effect by foliage application, plastic box (Table 20, symbol L); type: in vivo, windgrass (Apera spica-venti); conditions: 320 g/ha
Method in brief: (§1)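 Foliar spray test: emulsion formulation diluted in water to a set application rate, sprayed onto 14-day-old plants raised in diluvial soil at 25° C to 30° C under glass. Both herbicidal effect and crop effect rated visually three weeks later.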

rice flat sedge = assay: Test Example 3: herbicidal effect by foliage application, Wagner pot (Table 18, symbol E); type: in vivo, rice flat sedge (Cyperus iria); conditions: 320 g/ha
Method in brief: (§2)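 Plants were sown in alluvial soil held under 0.1–0.5 cm standing water and grown 14 days in a greenhouse at 25–30 °C. An emulsifiable formulation, water-diluted to the set dose, was then sprayed onto the foliage, and effects were scored three weeks later using previously defined criteria.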

barnyard grass [2] = assay: Test Example 3: herbicidal effect by foliage application, Wagner pot (Table 18, symbol H); type: in vivo, barnyard grass (Echinochloa crus-galli); conditions: 320 g/ha
Method in brief: as §2

lambsquarters [3] = assay: Test Example 4: herbicidal effect by soil treatment (Table 19, symbol O); type: in vivo, lambsquarters (Chenopodium album); conditions: amount of applied herbicide 320 g/ha
Method in brief: (§3)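 Herbicidal effect was rated 3 weeks after treatment, using the scoring criteria of an earlier test. The compound, formulated as an emulsion and diluted in water to a set herbicide amount, had been sprayed uniformly on soil over freshly sown seeds. Growth took place in a greenhouse at 25° C. to 30° C.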

redroot pigweed [4] = assay: Test Example 4: herbicidal effect by soil treatment (Table 19, symbol N); type: in vivo, redroot pigweed (Amaranthus retroflexus); conditions: amount of applied herbicide 320 g/ha
Method in brief: as §3

redroot pigweed [5] = assay: Test Example 5: herbicidal effect by foliage application, plastic box (Table 20, symbol N); type: in vivo, redroot pigweed (Amaranthus retroflexus); conditions: 320 g/ha
Method in brief: as §1

Italian ryegrass [6] = assay: Test Example 5: herbicidal effect by foliage application, plastic box (Table 20, symbol K); type: in vivo, Italian ryegrass (Lolium multiflorum); conditions: 320 g/ha
Method in brief: as §1

wild oat [7] = assay: Test Example 5: herbicidal effect by foliage application, plastic box (Table 20, symbol I); type: in vivo, wild oat (Avena fatua); conditions: 320 g/ha
Method in brief: as §1

Chinese sprangletop = assay: Test Example 3: herbicidal effect by foliage application, Wagner pot (Table 18, symbol D); type: in vivo, chinese sprangletop (Leptochloa chinensis); conditions: 320 g/ha
Method in brief: as §2

Japanese bulrush = assay: Test Example 1: herbicidal activity, application before weed generation under submerged conditions (Table 16, symbol B); type: in vivo, Japanese bulrush (Schoenoplectus juncoides); conditions: amount of applied herbicide 320 g/ha
Method in brief: (§4)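 Alluvial soil was flooded to 4 cm depth, weed seeds were sown mixed and 2.5-leaf rice seedlings were transplanted. On sowing day, the compound's emulsion, diluted in water to a set dose, was applied to the water surface. Plants grew at 25–30 °C and were scored 0–5 after three weeks.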

barnyard grass [8] = assay: Test Example 4: herbicidal effect by soil treatment (Table 19, symbol H); type: in vivo, barnyard grass (Echinochloa crus-galli); conditions: amount of applied herbicide 320 g/ha
Method in brief: as §3

green foxtail [9] = assay: Test Example 4: herbicidal effect by soil treatment (Table 19, symbol G); type: in vivo, green foxtail (Setaria viridis); conditions: amount of applied herbicide 320 g/ha
Method in brief: as §3

blackgrass [10] = assay: Test Example 5: herbicidal effect by foliage application, plastic box (Table 20, symbol J); type: in vivo, blackgrass (Alopecurus myosuroides); conditions: 320 g/ha
Method in brief: as §1

chickweed [11] = assay: Test Example 4: herbicidal effect by soil treatment (Table 19, symbol P); type: in vivo, common chickweed (Stellaria media); conditions: amount of applied herbicide 320 g/ha
Method in brief: as §3

blackgrass [12] = assay: Test Example 4: herbicidal effect by soil treatment (Table 19, symbol J); type: in vivo, blackgrass (Alopecurus myosuroides); conditions: amount of applied herbicide 320 g/ha
Method in brief: as §3

Italian ryegrass [13] = assay: Test Example 4: herbicidal effect by soil treatment (Table 19, symbol K); type: in vivo, Italian ryegrass (Lolium multiflorum); conditions: amount of applied herbicide 320 g/ha
Method in brief: as §3

green foxtail [14] = assay: Test Example 5: herbicidal effect by foliage application, plastic box (Table 20, symbol G); type: in vivo, green foxtail (Setaria viridis); conditions: 320 g/ha
Method in brief: as §1

wild oat [15] = assay: Test Example 4: herbicidal effect by soil treatment (Table 19, symbol I); type: in vivo, wild oat (Avena fatua); conditions: amount of applied herbicide 320 g/ha
Method in brief: as §3

chickweed [16] = assay: Test Example 5: herbicidal effect by foliage application, plastic box (Table 20, symbol P); type: in vivo, common chickweed (Stellaria media); conditions: 320 g/ha
Method in brief: as §1

persian speedwell [17] = assay: Test Example 4: herbicidal effect by soil treatment (Table 19, symbol R); type: in vivo, Persian speedwell (Veronica persica); conditions: amount of applied herbicide 320 g/ha
Method in brief: as §3

lambsquarters [18] = assay: Test Example 5: herbicidal effect by foliage application, plastic box (Table 20, symbol O); type: in vivo, lambsquarters (Chenopodium album); conditions: 320 g/ha
Method in brief: as §1

velvetleaf [19] = assay: Test Example 5: herbicidal effect by foliage application, plastic box (Table 20, symbol M); type: in vivo, velvetleaf (Abutilon theophrasti); conditions: 320 g/ha
Method in brief: as §1

velvetleaf [20] = assay: Test Example 4: herbicidal effect by soil treatment (Table 19, symbol M); type: in vivo, velvetleaf (Abutilon theophrasti); conditions: amount of applied herbicide 320 g/ha
Method in brief: as §3

barnyard grass [21] = assay: Test Example 5: herbicidal effect by foliage application, plastic box (Table 20, symbol H); type: in vivo, barnyard grass (Echinochloa crus-galli); conditions: 320 g/ha
Method in brief: as §1

false cleavers = assay: Test Example 4: herbicidal effect by soil treatment (Table 19, symbol Q); type: in vivo, false cleavers (Galium spurium); conditions: amount of applied herbicide 320 g/ha
Method in brief: as §3

persian speedwell [22] = assay: Test Example 5: herbicidal effect by foliage application, plastic box (Table 20, symbol R); type: in vivo, Persian speedwell (Veronica persica); conditions: 320 g/ha
Method in brief: as §1

oval-leafed pondweed = assay: Test Example 1: herbicidal activity, application before weed generation under submerged conditions (Table 16, symbol C); type: in vivo, oval-leafed pondweed (Monochoria vaginalis); conditions: amount of applied herbicide 320 g/ha
Method in brief: as §4

southern crabgrass [23] = assay: Test Example 4: herbicidal effect by soil treatment (Table 19, symbol F); type: in vivo, southern crabgrass (Digitaria ciliaris); conditions: amount of applied herbicide 320 g/ha
Method in brief: as §3

windgrass [24] = assay: Test Example 4: herbicidal effect by soil treatment (Table 19, symbol L); type: in vivo, windgrass (Apera spica-venti); conditions: amount of applied herbicide 320 g/ha
Method in brief: as §3

late watergrass = assay: Test Example 1: herbicidal activity, application before weed generation under submerged conditions (Table 16, symbol A); type: in vivo, late watergrass (Echinochloa oryzicola); conditions: amount of applied herbicide 320 g/ha
Method in brief: as §4

southern crabgrass [25] = assay: Test Example 5: herbicidal effect by foliage application, plastic box (Table 20, symbol F); type: in vivo, southern crabgrass (Digitaria ciliaris); conditions: 320 g/ha
Method in brief: as §1

[26] = foliage application after 14-day growth, evaluated three weeks after application
[27] = foliage application, three weeks after application

Compound	herbicidal effect on rice flat sedge (E) (rice flat sedge)	herbicidal effect on barnyard grass (H) (barnyard grass [2])	Herbicidal effect by soil treatment, O: lambsquarters (lambsquarters [3])	Herbicidal effect by soil treatment, N: redroot pigweed (redroot pigweed [4])	herbicidal effect on Chinese sprangletop (D) (Chinese sprangletop)	Herbicidal effect, B: Japanese bulrush (Japanese bulrush)	Herbicidal effect by soil treatment, H: barnyard grass (barnyard grass [8])	Herbicidal effect by soil treatment, G: green foxtail (green foxtail [9])	Herbicidal effect by soil treatment, P: chickweed (chickweed [11])	Herbicidal effect by soil treatment, J: blackgrass (blackgrass [12])	Herbicidal effect by soil treatment, K: Italian ryegrass (Italian ryegrass [13])	Herbicidal effect by soil treatment, I: wild oat (wild oat [15])	Herbicidal effect by soil treatment, R: persian speedwell (persian speedwell [17])	Herbicidal effect by soil treatment, M: velvetleaf (velvetleaf [20])	Herbicidal effect by soil treatment, Q: false cleavers (false cleavers)	Herbicidal effect, C: oval-leafed pondweed (oval-leafed pondweed)	Herbicidal effect by soil treatment, F: southern crabgrass (southern crabgrass [23])	Herbicidal effect by soil treatment, L: windgrass (windgrass [24])	Herbicidal effect, A: late watergrass (late watergrass)	also measured
CSc1ccc(-c2sc3c(F)cccc3c2-c2c(O)c(C)nn(C)c2=O)cc1 [4-050]	4 (Herbicidal rate of 70% or more and less than 90%)	5 (Herbicidal rate of 90% or more (almost completely withered))	3 (Herbicidal rate of 40% or more and less than 70%)	4 (Herbicidal rate of 70% or more and less than 90%)	4 (Herbicidal rate of 70% or more and less than 90%)	0 (Herbicidal rate of 5% or less (almost no effect))	2 (Herbicidal rate of 20% or more and less than 40%)	3 (Herbicidal rate of 40% or more and less than 70%)	4 (Herbicidal rate of 70% or more and less than 90%)	0 (Herbicidal rate of 5% or less (almost no effect))	1 (Herbicidal rate of 5% or more and less than 20%)	0 (Herbicidal rate of 5% or less (almost no effect))	4 (Herbicidal rate of 70% or more and less than 90%)	3 (Herbicidal rate of 40% or more and less than 70%)	0 (Herbicidal rate of 5% or less (almost no effect))	0 (Herbicidal rate of 5% or less (almost no effect))	2 (Herbicidal rate of 20% or more and less than 40%)	0 (Herbicidal rate of 5% or less (almost no effect))	3 (Herbicidal rate of 40% or more and less than 70%)	herbicidal effect on L: windgrass (evaluation grade 0-5) (windgrass [1]; [26]): 5 (Herbicidal rate of 90% or more (almost completely withered)); herbicidal effect on N: redroot pigweed (evaluation grade 0-5) (redroot pigweed [5]; [26]): 5 (Herbicidal rate of 90% or more (almost completely withered)); herbicidal effect on K: Italian ryegrass (evaluation grade 0-5) (Italian ryegrass [6]; [26]): 4 (Herbicidal rate of 70% or more and less than 90%); herbicidal effect on I: wild oat (evaluation grade 0-5) (wild oat [7]; [26]): 1 (Herbicidal rate of 5% or more and less than 20%); herbicidal effect on J: blackgrass (evaluation grade 0-5) (blackgrass [10]; [26]): 3 (Herbicidal rate of 40% or more and less than 70%); herbicidal effect on G: green foxtail (evaluation grade 0-5) (green foxtail [14]; [26]): 5 (Herbicidal rate of 90% or more (almost completely withered)); herbicidal effect on P: chickweed (evaluation grade 0-5) (chickweed [16]; [26]): 5 (Herbicidal rate of 90% or more (almost completely withered)); herbicidal effect on O: lambsquarters (evaluation grade 0-5) (lambsquarters [18]; [26]): 5 (Herbicidal rate of 90% or more (almost completely withered)); herbicidal effect on M: velvetleaf (evaluation grade 0-5) (velvetleaf [19]; [26]): 5 (Herbicidal rate of 90% or more (almost completely withered)); herbicidal effect on H: barnyard grass (evaluation grade 0-5) (barnyard grass [21]; [26]): 5 (Herbicidal rate of 90% or more (almost completely withered)); herbicidal effect on R: persian speedwell (evaluation grade 0-5) (persian speedwell [22]; [26]): 5 (Herbicidal rate of 90% or more (almost completely withered)); herbicidal effect on F: southern crabgrass (evaluation grade 0-5) (southern crabgrass [25]; [26]): 2 (Herbicidal rate of 20% or more and less than 40%)
Cc1nn(C)c(=O)c(-c2c(-c3ccc(OC(F)F)cc3)sc3cc(F)ccc23)c1O [3-141]	5 (Herbicidal rate of 90% or more (almost completely withered))	5 (Herbicidal rate of 90% or more (almost completely withered))	5 (Herbicidal rate of 90% or more (almost completely withered))	5 (Herbicidal rate of 90% or more (almost completely withered))	2 (Herbicidal rate of 20% or more and less than 40%)	0 (Herbicidal rate of 5% or less (almost no effect))	3 (Herbicidal rate of 40% or more and less than 70%)	1 (Herbicidal rate of 5% or more and less than 20%)	3 (Herbicidal rate of 40% or more and less than 70%)	3 (Herbicidal rate of 40% or more and less than 70%)	3 (Herbicidal rate of 40% or more and less than 70%)	0 (Herbicidal rate of 5% or less (almost no effect))	4 (Herbicidal rate of 70% or more and less than 90%)	3 (Herbicidal rate of 40% or more and less than 70%)	0 (Herbicidal rate of 5% or less (almost no effect))	0 (Herbicidal rate of 5% or less (almost no effect))	0 (Herbicidal rate of 5% or less (almost no effect))	3 (Herbicidal rate of 40% or more and less than 70%)	3 (Herbicidal rate of 40% or more and less than 70%)	L: windgrass, herbicidal effect grade (windgrass [1]; [27]): 5 (Herbicidal rate of 90% or more (almost completely withered)); N: redroot pigweed, herbicidal effect grade (redroot pigweed [5]; [27]): 5 (Herbicidal rate of 90% or more (almost completely withered)); K: Italian ryegrass, herbicidal effect grade (Italian ryegrass [6]; [27]): 5 (Herbicidal rate of 90% or more (almost completely withered)); I: wild oat, herbicidal effect grade (wild oat [7]; [27]): 1 (Herbicidal rate of 5% or more and less than 20%); J: blackgrass, herbicidal effect grade (blackgrass [10]; [27]): 4 (Herbicidal rate of 70% or more and less than 90%); G: green foxtail, herbicidal effect grade (green foxtail [14]; [27]): 5 (Herbicidal rate of 90% or more (almost completely withered)); P: chickweed, herbicidal effect grade (chickweed [16]; [27]): 5 (Herbicidal rate of 90% or more (almost completely withered)); O: lambsquarters, herbicidal effect grade (lambsquarters [18]; [27]): 5 (Herbicidal rate of 90% or more (almost completely withered)); M: velvetleaf, herbicidal effect grade (velvetleaf [19]; [27]): 5 (Herbicidal rate of 90% or more (almost completely withered)); H: barnyard grass, herbicidal effect grade (barnyard grass [21]; [27]): 4 (Herbicidal rate of 70% or more and less than 90%); R: persian speedwell, herbicidal effect grade (persian speedwell [22]; [27]): 5 (Herbicidal rate of 90% or more (almost completely withered)); F: southern crabgrass, herbicidal effect grade (southern crabgrass [25]; [27]): 0 (Herbicidal rate of 5% or less (almost no effect))
